Tested on: C57BL/6 mice
Assay: OVA mRNA LNP intramuscular immunization, anti OVA-IgG ELISA
Type: in vivo
Conditions: i.m., days 1 and 10
Source text: LNP with the composition LM02b were used to encapsulate OVA antigen encoded CleanCap® OVA WT mRNA [TriLink L7610] or CleanCap® OVA 5-moU mRNA [TriLink L7210]. A lipid mixture of Ionizable lipid, DOPE, Cholesterol, and PEG-DMG2000, all in ethanol, was mixed with a low PH buffered solution of OVA mRNA at an N/P ratio of 8 using a NanoAssemblr® Ignite™ microfluidic mixer. The LNP were filtered using the Amicon™ ultra filtration technique and characterized for Size, PDI and Encapsulation Efficiency. Size and PDI were measured using dynamic light scattering techniques, and nucleic acid encapsulation efficiency was calculated from the Quant-iT RiboGreen RNA assay. […]
All animals were handled according to the Institutional Animal Care and Use Committee ethics protocols. […] Aliquots of serum samples were thawed and analyzed at appropriate dilutions for OVA expression and for IgG measurements using standard ELISA techniques.
Anti OVA-IgG ELISA of serum samples: Sera from the immunized mice were collected at 2 weeks post second immunization. OVA-specific production of IgG in response to OVA-encoded mRNA in various LNPs were measured by ELISA as described supra. […] After 30 minutes of incubation, a stop solution of 2 N sulphuric acid was added and a plate reader was used to determine absorbance at 450 nm. […]

CCCCC/C=C\C/C=C\CCCCCCCC(=O)O[C@@H]1[C@@H](OC(=O)CCCCCCC/C=C\C/C=C\CCCCC)CO[C@@H]1COC(=O)CCCN1CCCC1 (racemic) [PNI 539]
immune response to OVA antigen loaded LNPs: effectively elicit an immune response similar to OVA antigen
